According to patent US20220183294A1, “PESTICIDALLY ACTIVE AZOLE AMIDE COMPOUNDS” (SYNGENTA CROP PROTECTION AG, priority 2019, published 2022):

Experiments:
Format in all cases: in vivo
[1] = system: Plutella xylostella (Diamond back moth); assay: Example B5: Plutella xylostella (Diamond back moth), artificial diet, 24-well; details: 192 h, application rate 200 ppm, eggs, 8 days after infestation, read-out: control in at least one of the two categories (mortality or growth inhibition)
Description: Example B5: Plutella xylostella (Diamond back moth)
24-well microtiter plates with artificial diet were treated with aqueous test solutions prepared from 10′000 ppm DMSO stock solutions by pipetting. After drying, Plutella eggs were pipetted through a plastic stencil onto a gel blotting paper and the plate was closed with it. The samples were assessed for mortality and growth inhibition in comparison to untreated samples 8 days after infestation.
(§1) The following compounds gave an effect of at least 80% control in at least one of the two categories (mortality or growth inhibition) at an application rate of 200 ppm: […]

[2] = system: Chilo suppressalis (Striped rice stemborer); assay: Example B4: Chilo suppressalis (Striped rice stemborer), artificial diet; details: 144 h, application rate 200 ppm, L2 larvae, 6 days after infestation, read-out: control in at least one of the three categories (mortality, anti-feedant effect, or growth inhibition)
Description: Example B4: Chilo suppressalis (Striped rice stemborer) 24-well microtiter plates with artificial diet were treated with aqueous test solutions prepared from 10′000 ppm DMSO stock solutions by pipetting. After drying, the plates were infested with L2 larvae (6-8 per well). The samples were assessed for mortality, anti-feeding effect, and growth inhibition in comparison to untreated samples 6 days after infestation. Control of Chilo suppressalis by a test sample is given when at least one of the categories mortality, anti-feedant effect, and growth inhibition is higher than the untreated sample.

[3] = system: Diabrotica balteata (Corn root worm); assay: Example B1: Diabrotica balteata (Corn root worm), sprayed maize sprouts; details: 96 h, application rate 200 ppm, L2 larvae, 4 days after infestation, read-out: control in at least one of the two categories (mortality or growth inhibition)
Description: Example B1: Diabrotica balteata (Corn root worm)
Maize sprouts placed onto an agar layer in 24-well microtiter plates were treated with aqueous test solutions prepared from 10′000 ppm DMSO stock solutions by spraying. After drying, the plates were infested with L2 larvae (6 to 10 per well). The samples were assessed for mortality and growth inhibition in comparison to untreated samples 4 days after infestation.
as §1

[4] = system: Spodoptera littoralis (Egyptian cotton leaf worm); assay: Example B9: Spodoptera littoralis (Egyptian cotton leaf worm), sprayed cotton leaf discs; details: foliar, 72 h, application rate 200 ppm, L1 larvae, 3 days after infestation, read-out: control in at least one of the three categories (mortality, anti-feedant effect, or growth inhibition)
Description: Example B9: Spodoptera littoralis (Egyptian cotton leaf worm)
Cotton leaf discs were placed onto agar in 24-well microtiter plates and sprayed with aqueous test solutions prepared from 10′000 ppm DMSO stock solutions. After drying the leaf discs were infested with five L1 larvae. The samples were assessed for mortality, anti-feeding effect, and growth inhibition in comparison to untreated samples 3 days after infestation. Control of Spodoptera littoralis by a test sample is given when at least one of the categories mortality, anti-feedant effect, and growth inhibition is higher than the untreated sample.

CC(NC(=O)c1cc(C(F)(F)F)cc(S(=O)(=O)C(F)(F)F)c1)c1ncnn1-c1ncc(OCC(F)F)cn1 (centres unmarked) [P16, N-[1-[2-[5-(2,2-difluoroethoxy)pyrimidin-2-yl]-1,2,4-triazol-3-yl]ethyl]-3-(trifluoromethyl)-5-(trifluoromethylsulfonyl) benzamide]
≥ 80%: percent control (mortality or growth inhibition) at 200 ppm [1] | percent control (mortality, anti-feedant effect or growth inhibition) at 200 ppm [2] | percent control (mortality or growth inhibition) at 200 ppm [3] | percent control (mortality, anti-feedant effect or growth inhibition) at 200 ppm [4]

CC(NC(=O)c1cc(C(F)(F)F)cc(C(F)(F)C2CC2)c1)c1ncnn1-c1ncc(OCC(F)(F)F)cn1 (centres unmarked) [P20, 3-[cyclopropyl(difluoro)methyl]-N-[1-[2-[5-(2,2,2-trifluoroethoxy)pyrimdin-2-yl]-1,2,4-triazol-3-yl]ethyl]-5-(trifluoromethyl) benzamide]
≥ 80%: percent control (mortality or growth inhibition) at 200 ppm [1] | percent control (mortality, anti-feedant effect or growth inhibition) at 200 ppm [2] | percent control (mortality, anti-feedant effect or growth inhibition) at 200 ppm [4]

CC(NC(=O)c1cc(C(F)(F)F)nc(C2(C#N)CC2)c1)c1ncnn1-c1ccc(OC(F)F)cn1 (centres unmarked) [P17, 2-(1-cyanocyclopropyl)-N-[1-[2-[5-(difluoromethoxy)-2-pyridyl]-1,2,4-triazol-3-yl]ethyl]-6-(trifluoromethyl) pyridine-4-carboxamide]
≥ 80%: percent control (mortality or growth inhibition) at 200 ppm [1] | percent control (mortality, anti-feedant effect or growth inhibition) at 200 ppm [2] | percent control (mortality or growth inhibition) at 200 ppm [3] | percent control (mortality, anti-feedant effect or growth inhibition) at 200 ppm [4]

CC(NC(=O)c1cc(C(F)(F)F)nc(C2(C#N)CC2)c1)c1ncnn1-c1ncc(OCC(F)(F)F)cn1 (centres unmarked) [P30, 2-(1-cyanocyclopropyl)-N-[1-[2-[5-(2,2,2-trifluoroethoxy)pyrimidin-2-yl]-1,2,4-triazol-3-yl]ethyl]-6-(trifluoromethyl) pyridine-4-carboxamide]
≥ 80%: percent control (mortality or growth inhibition) at 200 ppm [1] | percent control (mortality, anti-feedant effect or growth inhibition) at 200 ppm [4]

CC(NC(=O)c1cc(C(F)(F)F)cc(C(F)(F)C2CC2)c1)c1ncnn1-c1ccc(C#N)cn1 (centres unmarked) [P4, N-[1-[2-(5-cyano-2-pyridyl)-1,2,4-triazol-3-yl]ethyl]-3-[cyclopropyl(difluoro)methyl]-5-(trifluoromethyl)benzamide]
≥ 80%: percent control (mortality or growth inhibition) at 200 ppm [1] | percent control (mortality, anti-feedant effect or growth inhibition) at 200 ppm [2] | percent control (mortality or growth inhibition) at 200 ppm [3] | percent control (mortality, anti-feedant effect or growth inhibition) at 200 ppm [4]

CC(NC(=O)c1cc(C(F)(F)F)cc(C2(C#N)CC2)c1)c1ncnn1-c1ncc(OCC(F)(F)F)cn1 (centres unmarked) [P25, 3-(1-cyanocyclopropyl)-N-[1-[2-[5-(2,2,2-trifluoroethoxy)pyrimidin-2-yl]-1,2,4-triazol-3-yl]ethyl]-5-(trifluoromethyl) benzamide]
≥ 80%: percent control (mortality or growth inhibition) at 200 ppm [1] | percent control (mortality, anti-feedant effect or growth inhibition) at 200 ppm [2] | percent control (mortality, anti-feedant effect or growth inhibition) at 200 ppm [4]

CC(NC(=O)c1cc(C2CC2C(F)(F)F)cc(C(F)(F)F)c1)c1ncnn1-c1ccc(C#N)cn1 (centres unmarked) [P13, N-[1-[2-(5-cyano-2-pyridyl)-1,2,4-triazol-3-yl]ethyl]-3-(trifluoromethyl)-5-[2-(trifluoromethyl)cyclopropyl]benzamide]
≥ 80%: percent control (mortality or growth inhibition) at 200 ppm [1] | percent control (mortality, anti-feedant effect or growth inhibition) at 200 ppm [2] | percent control (mortality or growth inhibition) at 200 ppm [3] | percent control (mortality, anti-feedant effect or growth inhibition) at 200 ppm [4]

CC(NC(=O)c1cc(C(F)(F)F)nc(C2(C#N)CC2)c1)c1ncnn1-c1ncc(OC(F)F)cn1 (centres unmarked) [P8, 2-(1-cyanocyclopropyl)-N-[1-[2-[5-(difluoromethoxy)pyrimidin-2-yl]-1,2,4-triazol-3-yl]ethyl]-6-(trifluoromethyl) pyridine-4-carboxamide]
≥ 80%: percent control (mortality or growth inhibition) at 200 ppm [1] | percent control (mortality, anti-feedant effect or growth inhibition) at 200 ppm [2] | percent control (mortality or growth inhibition) at 200 ppm [3] | percent control (mortality, anti-feedant effect or growth inhibition) at 200 ppm [4]

CC(NC(=O)c1cc(C2CC2)nc(C(F)(F)F)c1)c1ncnn1-c1ccc(C#N)cn1 (centres unmarked) [P15, N-[1-[2-(5-cyano-2-pyridyl)-1,2,4-triazol-3-yl]ethyl]-2-cyclopropyl-6-(trifluoromethyl)pyridine-4-carboxamide]
≥ 80%: percent control (mortality or growth inhibition) at 200 ppm [1] | percent control (mortality, anti-feedant effect or growth inhibition) at 200 ppm [2] | percent control (mortality or growth inhibition) at 200 ppm [3] | percent control (mortality, anti-feedant effect or growth inhibition) at 200 ppm [4]

CC(NC(=O)c1cc(C(F)(F)F)cc(C(F)(F)C2CC2)c1)c1ncnn1-c1ccc(OC(F)F)cn1 (centres unmarked) [P19, 3-[cyclopropyl(difluoro)methyl]-N-[1-[2-[5-(difluoromethoxy)-2-pyridyl]-1,2,4-triazol-3-yl]ethyl]-5-(trifluoromethyl) benzamide]
≥ 80%: percent control (mortality or growth inhibition) at 200 ppm [1] | percent control (mortality, anti-feedant effect or growth inhibition) at 200 ppm [2] | percent control (mortality, anti-feedant effect or growth inhibition) at 200 ppm [4]

CC(NC(=O)c1cc(C(F)(F)F)cc(C2(C#N)CC2)c1)c1ncnn1-c1ccc(OC(F)F)cn1 (centres unmarked) [P24, 3-(1-cyanocyclopropyl)-N-[1-[2-[5-(difluoromethoxy)-2-pyridyl]-1,2,4-triazol-3-yl]ethyl]-5-(trifluoromethyl) benzamide]
≥ 80%: percent control (mortality or growth inhibition) at 200 ppm [1] | percent control (mortality, anti-feedant effect or growth inhibition) at 200 ppm [2] | percent control (mortality or growth inhibition) at 200 ppm [3] | percent control (mortality, anti-feedant effect or growth inhibition) at 200 ppm [4]

CC(NC(=O)c1cc(C2CC2)cc(C(F)(F)F)c1)c1ncnn1-c1ncc(OCC(F)F)cn1 (centres unmarked) [P23, 3-cyclopropyl-N-[1-[2-[5-(2,2-difluoroethoxy)pyrimidin-2-yl]-1,2,4-triazol-3-yl]ethyl]-5-(trifluoromethyl) benzamide]
≥ 80%: percent control (mortality or growth inhibition) at 200 ppm [1] | percent control (mortality, anti-feedant effect or growth inhibition) at 200 ppm [2] | percent control (mortality or growth inhibition) at 200 ppm [3] | percent control (mortality, anti-feedant effect or growth inhibition) at 200 ppm [4]

CC(NC(=O)c1cc(C(F)(F)F)nc(C2(C#N)CC2)c1)c1ncnn1-c1ncc(OCC(F)F)cn1 (centres unmarked) [P10, 2-(1-cyanocyclopropyl)-N-[1-[2-[5-(2,2-difluoroethoxy)pyrimidin-2-yl]-1,2,4-triazol-3-yl]ethyl]-6-(trifluoromethyl) pyridine-4-carboxamide]
≥ 80%: percent control (mortality or growth inhibition) at 200 ppm [1] | percent control (mortality, anti-feedant effect or growth inhibition) at 200 ppm [2] | percent control (mortality or growth inhibition) at 200 ppm [3] | percent control (mortality, anti-feedant effect or growth inhibition) at 200 ppm [4]

CC(NC(=O)c1cc(C(F)(F)F)cc(C2(C#N)CC2)c1)c1ncnn1-c1ncc(OC(F)F)cn1 (centres unmarked) [P26, 3-(1-cyanocyclopropyl)-N-[1-[2-[5-(difluoromethoxy)pyrimidin-2-yl]-1,2,4-triazol-3-yl]ethyl]-5-(trifluoromethyl) benzamide]
≥ 80%: percent control (mortality or growth inhibition) at 200 ppm [1] | percent control (mortality, anti-feedant effect or growth inhibition) at 200 ppm [2] | percent control (mortality, anti-feedant effect or growth inhibition) at 200 ppm [4]

CC(NC(=O)c1cc(C(F)(F)F)cc(C(F)(F)C2CC2)c1)c1ncnn1-c1ncc(OCC(F)F)cn1 (centres unmarked) [P11, 3-[cyclopropyl(difluoro)methyl]-N-[1-[2-[5-(2,2-difluoroethoxy)pyrimidin-2-yl]-1,2,4-triazol-3-yl]ethyl]-5-(trifluoromethyl) benzamide]
≥ 80%: percent control (mortality or growth inhibition) at 200 ppm [1] | percent control (mortality, anti-feedant effect or growth inhibition) at 200 ppm [2] | percent control (mortality or growth inhibition) at 200 ppm [3] | percent control (mortality, anti-feedant effect or growth inhibition) at 200 ppm [4]

CC(NC(=O)c1cc(C(F)(F)F)cc(C2(C#N)CC2)c1)c1ncnn1-c1ccc(C#N)cn1 (centres unmarked) [P18, 3-(1-cyanocyclopropyl)-N-[1-[2-(5-cyano-2-pyridyl)-1,2,4-triazol-3-yl]ethyl]-5-(trifluoromethyl) benzamide]
≥ 80%: percent control (mortality or growth inhibition) at 200 ppm [1] | percent control (mortality, anti-feedant effect or growth inhibition) at 200 ppm [2] | percent control (mortality, anti-feedant effect or growth inhibition) at 200 ppm [4]

CC(NC(=O)c1cc(C(F)(F)F)cc(C2(C#N)CC2)c1)c1ncnn1-c1ncc(OCC(F)F)cn1 (centres unmarked) [P31, 3-(1-cyanocyclopropyl)-N-[1-[2-[5-(2,2-difluoroethoxy)pyrimidin-2-yl]-1,2,4-triazol-3-yl]ethyl]-5-(trifluoromethyl) benzamide]
≥ 80%: percent control (mortality or growth inhibition) at 200 ppm [1] | percent control (mortality, anti-feedant effect or growth inhibition) at 200 ppm [2]
